Usually pKd stands for −log10 of the Kd, conventionally taken in molar units. Read a high pKd as a small Kd.

pKd: −log10 of the molar value. Residues, ends and D or L forms follow the SMILES beside them. *: point of attachment. Cbz = O=C(OCc1ccccc1)*; CH2Cl = ClC*

In experiment [1] the target is T1, SERPINB9 (Homo sapiens, UniProt P50453).
T1 construct: A construct of human SERPINB9 covering residues 2-376 in the pFastBacl vector; made in house; host or cells: insect Tni (Trichoplusia ni) cells, baculovirus
T1 sequence (P50453 2-376): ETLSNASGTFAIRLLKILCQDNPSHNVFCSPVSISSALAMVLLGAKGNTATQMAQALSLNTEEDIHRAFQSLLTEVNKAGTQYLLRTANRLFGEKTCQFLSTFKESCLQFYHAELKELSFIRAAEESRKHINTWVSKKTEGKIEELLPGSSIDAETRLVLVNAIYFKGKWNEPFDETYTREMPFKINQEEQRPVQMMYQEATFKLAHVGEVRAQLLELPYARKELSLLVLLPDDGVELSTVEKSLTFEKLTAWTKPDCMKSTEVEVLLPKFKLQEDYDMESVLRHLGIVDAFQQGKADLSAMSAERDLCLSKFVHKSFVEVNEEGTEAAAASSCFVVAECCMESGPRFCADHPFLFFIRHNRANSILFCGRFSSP
As to the kind of experiment: Ligand-detected NMR (DLB, STD, CPMG-R2). The format is binding. An excerpt: Ligand-focused NMR. To test the binding of Compound 27 and Compound 225 to SERPINB9, we used three ligand-detected nuclear magnetic resonance (NMR) methods: differential line broadening (DLB), saturation transfer difference (STD), and Carr-Purcell-Meiboom-Gill-transverse relaxation rate (CPMG-R2). […] Second, on-resonance saturation of SERPINB9 decreased the intensity of compound peaks in the STD experiment, indicating transmission of magnetization energy from SERPINB9 to proximal ligands. Finally, as ligands engaging the target protein relax faster (compared to free small molecules that have slow transverse relaxation rates in CPMG-R2 experiments), we saw a decreased relaxation time in the presence of a protein directly indicating binding of the ligand to that protein.

Experiment [2] concerns the target T1, SERPINB9. As to the kind of experiment: Isothermal titration calorimetry (ITC). The format is binding. The following applies: 20 μM SERPINB9 titrated with 200 μM compound, single site model. Here is the method: In an attempt to produce a soluble variant of Sb9, a construct was designed in which a maltose-binding protein (MBP) was added at the N-terminus (FIG. 4B). Sb9 was soluble in multiple growth media conditions using this strategy. The condition (1 mM IPTG, 37° C., 3 h) for best expression was selected for biomass production with 5 L culture. The cells were lysed and clarified by centrifugation. The fusion protein was then captured by Ni-NTA affinity purification, such that it was eluted using high concentration imidazole. Then, the resulting protein was further purified by anionic exchange chromatography using a MonoQ column and a NaCl gradient for elution. An amount of 31.4 mg protein was obtained. The purified Sb9 protein was characterized by SDS-PAGE and MALDI-TOF mass spectrometry (MS). A construct of human SERPINB9 covering residues 2-376 in the pFastBacl vector (Invitrogen) was overexpressed in insect Tni (Trichoplusia ni.) cells adapted for suspension culture in ESF921 medium (Expression systems). Cells were grown at 27° C. to a density of ˜2 million cells per mL, infected with baculovirus containing SERPINB9 construct, collected by centrifugation around 60 hrs post-infection, and stored at −80° C. […]

For experiment [3], the system named is B16-WT and B16-Sb9 KO cells. As to the kind of experiment: IL2-induced GrB expression and apoptosis by flow cytometry. The class given is cell-based, mouse. The following applies: 10 μM; IL2 70 ng/mL, 48 h. An excerpt: FIG. 1H. […] Data are expressed as means±SD from three independent experiments. ***P<0.001 (Student's t-test).
FIGS. 1J-1K. […] Cells treated with PBS alone were used as a negative control. Data are expressed as means±SD from three independent experiments. *P<0.05, ***P<0.001 (Student's t-test).
(In flow cytometry, cells or beads pass a laser one at a time.)

The test system of experiment [4] is MBP-Sb9. As to the kind of experiment: Thermal stability assay (TSA) fragment screen. The class given is binding. The following applies: 5000 to 21 μM. Here is the method:
FIG. 4A. The upper panels show the TSA results of the MBP-Sb9 protein incubated with 5 mM 3,4-dihydroxybenzoic acid (3,4-DHBA; left) and 3-oxo-1-indancarboxylic acid (right), or with 2.5% DMSO. The thermal shifts of the compounds 3,4-dihydroxybenzoic acid and 3-oxo-1-indancarboxylic acid are shown in a thick dark line against a baseline control shown as a thin gray line. The bottom panels show the TSA results of the MBP-Sb9 protein incubated with 3,4-dihydroxybenzoic acid (left) or 3-oxo-1-indancarboxylic acid (right) at different concentrations, including 5000, 1667, 556, 185, 62, and 21 μM. The concentration-response curves are plotted in a black/gray color scale (higher intensity is higher concentration) and the straight line plots represent the compound background signal.
TSA is an analytic tool to estimate the overall stability of a protein by monitoring the shift in its melting temperature upon changing the buffer conditions or titrating various ligands. As the protein unfolds with increasing temperature in a thermal cycler (CFX384 Touch Real-Time PCR Detection System), SYPRO orange dye binds to the exposed hydrophobic core and fluoresces, leading to the signal that is measured in comparison to temperature to produce a melt curve. […] Dye was added at 2×strength, and the readings were performed from 25° C. to 95° C. at 0.5° C. intervals. […]

Experiment [5] addresses T2, MBP-Sb9 (Homo sapiens, UniProt P50453).
T2 construct: made in house
As to the kind of experiment: Surface plasmon resonance (SPR) binding. The following applies: 25° C., 1:1 Langmuir model. Here is the method: Surface plasmon resonance (SPR) measures change in refractive index on a biosensor surface, as analytic mass accumulates via binding to an attached ligand. This allows derivation of affinity (KD) from measured kinetic rates of association (ka) and dissociation (kd). All assays were run at 25° C. on a BiOptix 404pi. An NTA biosensor chip was used in this study to pre-concentrate 3 μM MBP-Sb9 via an N-terminal His-tag. MBP-Sb9 was covalently immobilized with EDC/NHS in 20 mM HEPES pH 8.0, 150 mM NaCl, 0.05% Tween-20, 5 mM β-ME to 10,000 to 15,000 RUs. MBP was similarly immobilized on a separate channel as a negative control. Compounds were injected as 3-fold serial dilutions in duplicate starting at 200 μM. Injections were done at 50 μL/min for 60 seconds, followed by a 120 second dissociation in 20 mM HEPES, pH 8.0, 150 mM NaCl, 0.05% Tween-20, 5 mM j-ME, 1% DMSO. A series of five DMSO standards between 0.5% and 1.5% were included with each run to correct for bulk refractive index. Sensorgrams were analyzed using Scrubber 2 software with a double reference and fit to a 1:1 Langmuir model to determine the interaction parameters KD, ka, and kd.
On the technique in general: SPR reads the build-up and loss of mass on a sensor chip optically.

The next experiment concerns the target MBP (Escherichia coli, UniProt P0AEX9). As to the kind of experiment: SPR negative control channel. The class given is binding. The method, then: FIG. 4B. Sensorgrams of compounds 3,4-dihydroxybenzoic acid (top), 3-oxo-1-indancarboxylic acid (middle), and the compound of Formula (III) (bottom) show the binding of 3,4-dihydroxybenzoic acid and the compound of Formula (III) to Sb9 (top), but not to MBP (bottom) by Surface Plasmon Resonance (SPR).
All assays were run at 25° C. on a BiOptix 404pi. An NTA biosensor chip was used in this study to pre-concentrate 3 μM MBP-Sb9 via an N-terminal His-tag. MBP-Sb9 was covalently immobilized with EDC/NHS in 20 mM HEPES pH 8.0, 150 mM NaCl, 0.05% Tween-20, 5 mM β-ME to 10,000 to 15,000 RUs. MBP was similarly immobilized on a separate channel as a negative control.

T2 sequence (P50453 whole entry): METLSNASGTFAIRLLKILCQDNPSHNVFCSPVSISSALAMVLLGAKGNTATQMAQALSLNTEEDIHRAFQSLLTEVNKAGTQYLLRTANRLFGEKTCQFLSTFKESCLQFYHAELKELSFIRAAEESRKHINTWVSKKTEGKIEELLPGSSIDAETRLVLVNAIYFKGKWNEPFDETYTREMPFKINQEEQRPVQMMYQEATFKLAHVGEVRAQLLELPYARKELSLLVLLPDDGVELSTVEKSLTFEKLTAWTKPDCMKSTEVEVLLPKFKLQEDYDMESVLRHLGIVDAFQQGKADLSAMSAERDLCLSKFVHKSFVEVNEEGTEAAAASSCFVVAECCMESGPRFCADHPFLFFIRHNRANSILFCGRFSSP

On to `CCN(C)C(=O)c1ccc2nc(-c3ccccc3)oc2c1` [Compound 27, N-ethyl-N-methyl-2-phenyl-1,3-benzoxazole-6-carboxamide], for which the “binding to SERPINB9 by ligand-detected NMR” value on SERPINB9 [1] is given as “SERPINB9 binders”. The compound also had a pKd at SERPINB9 [2] of 4.67. As to `C[C@H](NC(=O)OCc1ccccc1)C(=O)N[C@@H](C)C(=O)N[C@@H](CC(=O)O)C(=O)CCl` [GrB inhibitor (368050)] (Cbz-Ala-Ala-Asp-CH2Cl), the “apoptosis of IL2-treated cells” value in experiment [3] is reported as “suppresses apoptosis”. Regarding `O=C1CC(C(=O)O)c2ccccc21` (stereo not drawn) [3-oxo-1-indancarboxylic acid], the Tm1 shift result in the experiment with MBP-Sb9 [4] is listed as “dose-dependent Tm1 shift”. The compound `O=C(O)c1ccc(O)c(O)c1` [3,4-dihydroxybenzoic acid, reference compound] showed a pKd at MBP-Sb9 [5] of 4.06. The Tm1 shift result with MBP-Sb9 [4] is on record as “dose-dependent Tm1 shift”. Besides, the “binding to MBP (negative control)” value at MBP was “not to MBP”. For the compound `CCOc1ccc(C(=O)NCc2ccccc2)cc1O` [Compound 227, N-benzyl-4-ethoxy-3-hydroxybenzamide], on SERPINB9 [1], the “binding to SERPINB9 by ligand-detected NMR” value is listed as “SERPINB9 binders”. In addition, at SERPINB9 [2], the pKd is 4.54.

For the origin of these results see US20230255906A1, “Targeting Serpin B9 in Cancer” (The Brigham and Women`s Hospital, Inc., priority 2020, published 2023).
